How the values were obtained:
cholesterol absorption = assay: Amount of cholesterol absorption from the digestive tract into blood; assay type: in vivo; conditions: male Balb/c mouse, oral 3H-cholesterol oleate, plasma radioactivity 6 hours after administration, relative to control = 1; FIG. 3
Method: Cholesterol oleate (Amersham, 100 μCi/mL) radiolabeled with ^3H was mixed with 1% (w/v) sodium carboxylmethyl cellulose (CMC-Na), 1% (v/v) Tween 80, and a non-labeled cholesterol oleate, and then 0.1 mL of the mixture was forcibly administered into each mouse through an oral zonde so that 1 μCi could be delivered to each mouse. Here, the mouse in the control group (an 8-week old male Balb/c with body weight of 25 g) was treated with 400 μg of Orlistat (20 mg/kg), which has an inhibitory effect against cholesterol absorption, and the mouse in the experimental group (an 8-week old male Balb/c with body weight of 25 g) was treated with […] of Laetiporus sulphureus prepared in the Example after concentrating it into 0.1 mL. Six hours after the administration, blood samples were collected from the mice, and plasma was obtained by centrifuging the blood at 40° C. at the rate of 14000 rpm, and the radioactive dose was measured by a liquid scintillator (Beta counter, Beckman LS1801). The Control group was not treated with anything that may inhibit the absorption of cholesterol. The amount of cholesterol absorption was determined as a relative value by dividing the radioactive dose of each group into the radioactive dose of the control group, in which the radioactive dose of the control group was set at ‘1’.

lipid absorption = assay: Amount of triglyceride (lipid) absorption from the digestive tract into blood; assay type: in vivo; conditions: male Balb/c mouse, oral 14C-triolein, plasma radioactivity 6 hours after administration, relative to control = 1; FIG. 4
Method: Triolein (Amersham, 100 μCi/mL) radiolabeled with ^14C was mixed with 1% (w/v) sodium carboxylmethyl cellulose (CMC-Na) and 1% (v/v) Tween 80, and then 0.1 mL of the mixture was forcibly administered into each mouse through an oral zonde so that 1 μCi could be delivered to each mouse. Here, the mouse in the control group (an 8-week old male Balb/c with body weight of 25 g) was treated with 400 μg of Orlistat (20 mg/kg), which is used as an obesity treatment, and the mouse in the experimental group (an 8-week old male Balb/c with body weight of 25 g) was treated with 0.5 mL of the water extract (50 mg/mL) of Laetiporus sulphureus prepared in the Example after concentrating it into 0.1 mL. Six hours after the administration, blood samples were collected from the mice, and plasma was obtained by centrifuging the blood at 40° C. at the rate of 14000 rpm, and the radioactive dose was measured by a liquid scintillator (Beta counter, Beckman LS1801). The control group was not treated with anything. The amount of lipid absorption was determined as a relative value by dividing the radioactive dose of each group into the radioactive dose of the control group, in which the radioactive dose of the control group was set at ‘1’.

## CCCCCCCCCCC[C@@H](C[C@@H]1OC(=O)[C@H]1CCCCCC)OC(=O)[C@H](CC(C)C)NC=O [Orlistat]
Cholesterol absorption
  inhibitory effect upon cholesterol absorption: significant inhibitory effect
Lipid absorption
  inhibitory effect upon lipid absorption: significant inhibitory effect
